Laboratory results taken from ChEMBL document CHEMBL5634162, “Cyclohexylalanine-Containing α-Helical Amphipathic Peptide Targets Cardiolipin, Rescuing Mitochondrial Dysfunction in Kidney Injury” (J Med Chem, 2024).
Where a SMILES comes first, the peptide text is derived from it. Bridges are numbered along the chain shown (N, C = ends). Roman numbers before positions name the chains, in order. [ ]: non-standard residue; d: D form. The star is where a group is joined. 5TAMRA = CN(C)c1ccc2c(c1)Oc1cc(N(C)C)ccc1C21OC(=O)c2cc(C(=O)*)ccc21; Cha = N[C@@H](CC1CCCCC1)C(=O)O

Assay: Drug localization in mitochondria of human HeLa cells at EC50 incubated for 3 hrs by fluorescence based assay
Format: ADME

Row | SMILES | Drug uptake
1 | CC(=O)N[C@@H](CC1CCCCC1)C(=O)N[C@H]1CSSC[C@@H](C(=O)N[C@@H](CCCNC(=N)N)C(N)=O)NC(=O)[C@H](CC(C)C)NC(=O)[C@H](CCCNC(=N)N)NC(=O)[C@H](CCCNC(=N)N)NC(=O)[C@H](CC2CCCCC2)NC(=O)[C@H](CC(C)C)NC(=O)[C@H](CCCNC(=N)N)NC(=O)[C@@H](NC(=O)[C@H](CC2CCCCC2)NC(=O)c2ccc3c(c2)C(=O)OC32c3ccc(N(C)C)cc3Oc3cc(N(C)C)ccc32)CSSC[C@@H](C(=O)N[C@@H](CCCNC(=N)N)C(N)=O)NC(=O)[C@H](CC(C)C)NC(=O)[C@H](CCCNC(=N)N)NC(=O)[C@H](CCCNC(=N)N)NC(=O)[C@H](CC2CCCCC2)NC(=O)[C@H](CC(C)C)NC(=O)[C@H](CCCNC(=N)N)NC1=O (I: Ac-[Cha]CRL[Cha]RRLCR-NH2 / II: 5TAMRA-[Cha]CRL[Cha]RRLCR-NH2; disulfide I:2-II:9, I:9-II:2) | 53%
2 | CC(=O)N[C@@H](CC(C)C)C(=O)N[C@H]1CSSC[C@@H](C(=O)N[C@@H](CCCNC(=N)N)C(N)=O)NC(=O)[C@H](CC2CCCCC2)NC(=O)[C@H](CCCNC(=N)N)NC(=O)[C@H](CCCNC(=N)N)NC(=O)[C@H](CC(C)C)NC(=O)[C@H](CC2CCCCC2)NC(=O)[C@H](CCCNC(=N)N)NC(=O)[C@@H](NC(=O)[C@H](CC(C)C)NC(=O)c2ccc3c(c2)C(=O)OC32c3ccc(N(C)C)cc3Oc3cc(N(C)C)ccc32)CSSC[C@@H](C(=O)N[C@@H](CCCNC(=N)N)C(N)=O)NC(=O)[C@H](CC2CCCCC2)NC(=O)[C@H](CCCNC(=N)N)NC(=O)[C@H](CCCNC(=N)N)NC(=O)[C@H](CC(C)C)NC(=O)[C@H](CC2CCCCC2)NC(=O)[C@H](CCCNC(=N)N)NC1=O (I: Ac-LCR[Cha]LRR[Cha]CR-NH2 / II: 5TAMRA-LCR[Cha]LRR[Cha]CR-NH2; disulfide I:2-II:9, I:9-II:2) | 53%
3 | CC(=O)N[C@@H](CC(C)C)C(=O)N[C@H]1CSSC[C@@H](C(=O)N[C@@H](CCCNC(=N)N)C(N)=O)NC(=O)[C@H](CC(C)C)NC(=O)[C@H](CCCNC(=N)N)NC(=O)[C@H](CCCNC(=N)N)NC(=O)[C@H](CC2CCCCC2)NC(=O)[C@H](CC2CCCCC2)NC(=O)[C@H](CCCNC(=N)N)NC(=O)[C@@H](NC(=O)[C@H](CC(C)C)NC(=O)c2ccc3c(c2)C(=O)OC32c3ccc(N(C)C)cc3Oc3cc(N(C)C)ccc32)CSSC[C@@H](C(=O)N[C@@H](CCCNC(=N)N)C(N)=O)NC(=O)[C@H](CC(C)C)NC(=O)[C@H](CCCNC(=N)N)NC(=O)[C@H](CCCNC(=N)N)NC(=O)[C@H](CC2CCCCC2)NC(=O)[C@H](CC2CCCCC2)NC(=O)[C@H](CCCNC(=N)N)NC1=O (I: Ac-LCR[Cha][Cha]RRLCR-NH2 / II: 5TAMRA-LCR[Cha][Cha]RRLCR-NH2; disulfide I:2-II:9, I:9-II:2) | 53%
4 | CC(=O)N[C@@H](CC1CCCCC1)C(=O)N[C@H]1CSSC[C@@H](C(=O)N[C@@H](CCCNC(=N)N)C(N)=O)NC(=O)[C@H](CC2CCCCC2)NC(=O)[C@H](CCCNC(=N)N)NC(=O)[C@H](CCCNC(=N)N)NC(=O)[C@H](CC2CCCCC2)NC(=O)[C@H](CC2CCCCC2)NC(=O)[C@H](CCCNC(=N)N)NC(=O)[C@@H](NC(=O)[C@H](CC2CCCCC2)NC(=O)c2ccc3c(c2)C(=O)OC32c3ccc(N(C)C)cc3Oc3cc(N(C)C)ccc32)CSSC[C@@H](C(=O)N[C@@H](CCCNC(=N)N)C(N)=O)NC(=O)[C@H](CC2CCCCC2)NC(=O)[C@H](CCCNC(=N)N)NC(=O)[C@H](CCCNC(=N)N)NC(=O)[C@H](CC2CCCCC2)NC(=O)[C@H](CC2CCCCC2)NC(=O)[C@H](CCCNC(=N)N)NC1=O (I: Ac-[Cha]CR[Cha][Cha]RR[Cha]CR-NH2 / II: 5TAMRA-[Cha]CR[Cha][Cha]RR[Cha]CR-NH2; disulfide I:2-II:9, I:9-II:2) | 53%
